In patent US20230103791A1 (GLAXOSMITHKLINE INTELLECTUAL PROPERTY DEVELOPMENT LIMITED, priority 2019, published 2023):

Molecular target: T1, human Nav1.8 (Homo sapiens, UniProt Q9Y5Y9)
T1 construct: expressed in transfected cells; host or cells: HEK293 (HEK293-Nav1.8)
Assay: Nav1.8 sodium channels assay, QPatch 48 HTX electrophysiology in HEK293-Nav1.8 cells
Assay type: cell-based
Settings: at least one set of experimental runs; read-out: average pIC50 value against Nav1.8 (converted)
Summary of the method: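 HEK293 cells co-expressing human Nav1.8, Navβ1 and TREK1 were voltage-clamped on QPatch 48 HTX. The V1/2 protocol ran at 0.07 Hz: hold −100 mV, 20 ms to 0 mV, 8 s at −46 mV, 20 ms at −100 mV, then 20 ms at 0 mV (P2). P2 current was fitted over 6-8 concentrations for IC50, with vehicle wells used to correct for run-down.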

T1 sequence (Q9Y5Y9 whole entry): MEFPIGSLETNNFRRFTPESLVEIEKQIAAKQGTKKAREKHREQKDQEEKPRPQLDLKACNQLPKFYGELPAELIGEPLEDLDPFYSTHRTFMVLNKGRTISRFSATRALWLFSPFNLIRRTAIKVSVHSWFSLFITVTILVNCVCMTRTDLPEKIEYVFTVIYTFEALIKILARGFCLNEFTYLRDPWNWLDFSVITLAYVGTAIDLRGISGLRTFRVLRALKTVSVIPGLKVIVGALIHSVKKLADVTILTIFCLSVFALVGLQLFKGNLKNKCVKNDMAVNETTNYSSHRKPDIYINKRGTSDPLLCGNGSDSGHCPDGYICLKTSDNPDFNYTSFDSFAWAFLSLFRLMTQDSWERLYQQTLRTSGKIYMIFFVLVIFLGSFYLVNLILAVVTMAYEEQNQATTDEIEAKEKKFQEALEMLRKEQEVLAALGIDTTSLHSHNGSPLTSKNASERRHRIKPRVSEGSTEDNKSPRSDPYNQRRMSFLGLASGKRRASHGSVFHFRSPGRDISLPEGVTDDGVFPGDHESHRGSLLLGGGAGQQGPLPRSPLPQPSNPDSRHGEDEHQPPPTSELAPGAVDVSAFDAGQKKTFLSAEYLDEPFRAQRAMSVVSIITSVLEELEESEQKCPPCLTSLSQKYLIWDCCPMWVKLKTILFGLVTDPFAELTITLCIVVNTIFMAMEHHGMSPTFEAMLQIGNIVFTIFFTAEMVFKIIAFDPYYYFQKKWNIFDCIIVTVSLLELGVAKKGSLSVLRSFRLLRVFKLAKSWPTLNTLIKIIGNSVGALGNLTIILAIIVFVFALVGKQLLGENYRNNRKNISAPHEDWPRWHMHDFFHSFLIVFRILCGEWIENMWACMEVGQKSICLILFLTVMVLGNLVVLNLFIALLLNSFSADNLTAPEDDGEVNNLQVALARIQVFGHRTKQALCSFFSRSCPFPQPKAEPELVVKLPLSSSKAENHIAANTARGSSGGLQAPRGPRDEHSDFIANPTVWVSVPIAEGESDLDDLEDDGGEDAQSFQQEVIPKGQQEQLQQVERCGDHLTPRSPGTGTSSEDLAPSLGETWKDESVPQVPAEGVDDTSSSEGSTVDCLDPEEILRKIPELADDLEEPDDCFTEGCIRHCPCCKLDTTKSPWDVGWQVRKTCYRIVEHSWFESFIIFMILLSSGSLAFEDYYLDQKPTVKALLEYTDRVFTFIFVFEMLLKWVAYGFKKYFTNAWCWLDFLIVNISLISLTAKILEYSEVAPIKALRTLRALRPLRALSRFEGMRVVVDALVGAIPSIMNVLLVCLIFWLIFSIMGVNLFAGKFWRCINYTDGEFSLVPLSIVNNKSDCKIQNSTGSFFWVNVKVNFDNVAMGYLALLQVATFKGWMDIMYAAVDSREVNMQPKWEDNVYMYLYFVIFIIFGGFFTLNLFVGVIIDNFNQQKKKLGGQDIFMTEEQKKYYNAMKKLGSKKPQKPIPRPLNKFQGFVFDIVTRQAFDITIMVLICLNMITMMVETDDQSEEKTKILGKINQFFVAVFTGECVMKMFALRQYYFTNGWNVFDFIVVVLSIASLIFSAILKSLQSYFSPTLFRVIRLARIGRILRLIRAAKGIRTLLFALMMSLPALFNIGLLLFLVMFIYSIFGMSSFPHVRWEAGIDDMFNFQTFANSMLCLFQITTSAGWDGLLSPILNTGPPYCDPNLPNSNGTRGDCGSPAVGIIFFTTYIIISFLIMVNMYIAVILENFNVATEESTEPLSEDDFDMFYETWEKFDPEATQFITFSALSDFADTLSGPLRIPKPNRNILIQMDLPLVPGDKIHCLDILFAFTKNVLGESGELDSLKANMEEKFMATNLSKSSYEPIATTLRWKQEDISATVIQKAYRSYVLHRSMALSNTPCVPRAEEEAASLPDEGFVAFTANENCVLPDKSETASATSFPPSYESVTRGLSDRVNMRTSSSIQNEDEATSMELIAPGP
T1 sequence (Q07699 19-218 partner): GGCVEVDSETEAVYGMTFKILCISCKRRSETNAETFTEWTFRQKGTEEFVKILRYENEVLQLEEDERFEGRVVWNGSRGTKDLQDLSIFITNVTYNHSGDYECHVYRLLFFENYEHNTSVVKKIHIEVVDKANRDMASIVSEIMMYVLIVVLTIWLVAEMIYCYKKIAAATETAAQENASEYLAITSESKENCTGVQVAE

How did the IC50 turn out when `Cc1cc(F)ccc1N1CN(c2ccc(=O)[nH]c2C)C(=O)c2cc(Cl)c(F)cc21` [Example 104, 6-chloro-7-fluoro-1-(4-fluoro-2-methylphenyl)-3-(2-methyl-6-oxo-1,6-dihydropyridin-3-yl)-2,3-dihydroquinazolin-4(1H)-one] was run?
Its IC50 is ≤ 100 nM.

For `Cc1cc(F)ccc1N1CN(c2ccc(=O)[nH]c2C)C(=O)c2cc(Cl)c(C#N)cc21` [Example 105, 6-chloro-1-(4-fluoro-2-methylphenyl)-3-(2-methyl-6-oxo-1,6-dihydropyridin-3-yl)-4-oxo-1,2,3,4-tetrahydroquinazoline-7-carbonitrile], which IC50 is on record?
Its IC50 is ≤ 100 nM.

For `CCc1[nH]c(=O)ccc1N1CN(c2ccc(F)cc2C)c2ccc(Cl)cc2C1=O` [Example 106, 6-chloro-3-(2-ethyl-6-oxo-1,6-dihydropyridin-3-yl)-1-(4-fluoro-2-methylphenyl)-2,3-dihydroquinazolin-4(1H)-one], which IC50 is on record?
The IC50 was ≤ 100 nM.

How did the IC50 turn out when `Cc1cc(F)ccc1N1CN(c2ccc(=O)[nH]c2C)C(=O)c2cc(C(F)(F)F)c(F)cc21` [Example 107, 7-fluoro-1-(4-fluoro-2-methylphenyl)-3-(2-methyl-6-oxo-1,6-dihydropyridin-3-yl)-6-(trifluoromethyl)-2,3-dihydroquinazolin-4(1H)-one] was run?
The IC50 was ≤ 100 nM.

`Cc1cc(F)ccc1N1CN(c2ccc(=O)[nH]c2C)C(=O)c2c1ccc(C(F)(F)F)c2F` [Example 108, 5-fluoro-1-(4-fluoro-2-methylphenyl)-3-(2-methyl-6-oxo-1,6-dihydropyridin-3-yl)-6-(trifluoromethyl)-2,3-dihydroquinazolin-4(1H)-one] was tested. Which IC50 did it give?
The IC50 was ≤ 100 nM.

Which IC50 does the source give for `Cc1cc(F)ccc1N1CN(c2ccc(=O)[nH]c2C)C(=O)c2cc(F)c(Cl)cc21` [Example 109, 7-chloro-6-fluoro-1-(4-fluoro-2-methylphenyl)-3-(2-methyl-6-oxo-1,6-dihydropyridin-3-yl)-2,3-dihydroquinazolin-4(1H)-one] here?
The IC50 was ≤ 100 nM.

Which IC50 does the source give for `Cc1cc(F)ccc1N1CN(c2ccc(=O)[nH]c2C)C(=O)c2cc(F)c(C(F)(F)F)cc21` [Example 110, 6-fluoro-1-(4-fluoro-2-methylphenyl)-3-(2-methyl-6-oxo-1,6-dihydropyridin-3-yl)-7-(trifluoromethyl)-2,3-dihydroquinazolin-4(1H)-one] here?
The IC50 was ≤ 100 nM.

For `Cc1cc(F)ccc1N1CN(c2ccc(=O)[nH]c2C)C(=O)c2cc(C(F)(F)F)c(C#N)cc21` [Example 111, 1-(4-fluoro-2-methylphenyl)-3-(2-methyl-6-oxo-1,6-dihydropyridin-3-yl)-4-oxo-6-(trifluoromethyl)-1,2,3,4-tetrahydroquinazoline-7-carbonitrile], which IC50 is on record?
Its IC50 is ≤ 100 nM.

With `Cc1cc(F)ccc1N1CN(c2ccc(=O)[nH]c2C)C(=O)c2cc(C#N)c(OC(F)(F)F)cc21` [Example 112, 1-(4-fluoro-2-methylphenyl)-3-(2-methyl-6-oxo-1,6-dihydropyridin-3-yl)-4-oxo-7-(trifluoromethoxy)-1,2,3,4-tetrahydroquinazoline-6-carbonitrile] as the compound, how does the IC50 read?
The IC50 was ≤ 100 nM.

`Cc1cc(F)c(F)cc1N1CN(c2ccc(=O)[nH]c2C)C(=O)c2cc(C(F)(F)F)ccc21` [Example 113, 1-(4,5-difluoro-2-methylphenyl)-3-(2-methyl-6-oxo-1,6-dihydropyridin-3-yl)-6-(trifluoromethyl)-2,3-dihydroquinazolin-4(1H)-one] was tested. Which IC50 did it give?
Its IC50 is 126 to 631 nM.

Which IC50 does the source give for `Cc1[nH]c(=O)ccc1N1CN(c2ccc(F)cc2C(C)(C)C)c2cc(C(F)(F)F)ccc2C1=O` [Example 114, 1-(2-(tert-butyl)-4-fluorophenyl)-3-(2-methyl-6-oxo-1,6-dihydropyridin-3-yl)-7-(trifluoromethyl)-2,3-dihydroquinazolin-4(1H)-one] here?
The IC50 was ≤ 100 nM.

With `Cc1cc(F)ccc1N1CN(c2cnc(=O)[nH]c2C)C(=O)c2ccc(C(F)(F)F)cc21` [Example 115, 1-(4-fluoro-2-methylphenyl)-3-(6-methyl-2-oxo-1,2-dihydropyrimidin-5-yl)-7-(trifluoromethyl)-2,3-dihydroquinazolin-4(1H)-one] as the compound, how does the IC50 read?
Its IC50 is ≤ 100 nM.

For `CCc1cc(F)ccc1N1CN(c2ccc(=O)[nH]c2C)C(=O)c2cc(F)ccc21` [Example 116, 1-(2-ethyl-4-fluorophenyl)-6-fluoro-3-(2-methyl-6-oxo-1,6-dihydropyridin-3-yl)-2,3-dihydroquinazolin-4(1H)-one], which IC50 is on record?
The IC50 was ≤ 100 nM.

`Cc1cc(C#N)ccc1N1CN(c2ccc(=O)[nH]c2C)C(=O)c2cc(Cl)ccc21` [Example 117, 4-(6-chloro-3-(2-methyl-6-oxo-1,6-dihydropyridin-3-yl)-4-oxo-3,4-dihydroquinazolin-1(2H)-yl)-3-methylbenzonitrile] was tested. Which IC50 did it give?
Its IC50 is ≤ 100 nM.

Which IC50 does the source give for `Cc1ccc(F)cc1N1CN(c2ccc(=O)[nH]c2C)C(=O)c2cc(C(F)(F)F)ccc21` [Example 118, 1-(5-fluoro-2-methylphenyl)-3-(2-methyl-6-oxo-1,6-dihydropyridin-3-yl)-6-(trifluoromethyl)-2,3-dihydroquinazolin-4(1H)-one] here?
Its IC50 is 126 to 631 nM.

How did the IC50 turn out when `Cc1cc(OC(F)(F)F)ccc1N1CN(c2ccc(=O)[nH]c2)C(=O)c2cc(C(F)(F)F)cnc21` [Example 119, 1-(2-methyl-4-(trifluorometh-oxy)phenyl)-3-(6-oxo-1,6-dihydropyridin-3-yl)-6-(trifluoromethyl)-2,3-dihydropyrido[2,3-d]pyrimidin-4(1H)-one] was run?
The IC50 was 126 to 631 nM.

Which IC50 does the source give for `Cc1[nH]c(=O)ccc1N1CN(c2cccc(F)c2C)c2ccc(C(F)(F)F)cc2C1=O` [Example 120, 1-(3-fluoro-2-methylphenyl)-3-(2-methyl-6-oxo-1,6-dihydropyridin-3-yl)-6-(trifluoromethyl)-2,3-dihydroquinazolin-4(1H)-one] here?
Its IC50 is ≤ 100 nM.

For `Cc1cc(F)cc(F)c1N1CN(c2ccc(=O)[nH]c2C)C(=O)c2cc(C(F)(F)F)ccc21` [Example 121, 1-(2,4-difluoro-6-methylphenyl)-3-(2-methyl-6-oxo-1,6-dihydropyridin-3-yl)-6-(trifluoromethyl)-2,3-dihydroquinazolin-4(1H)-one], which IC50 is on record?
The IC50 was 126 to 631 nM.

How did the IC50 turn out when `Cc1[nH]c(=O)ccc1N1CN(c2ccc(F)cc2C(C)C)c2nc(C(F)F)ccc2C1=O` [Example 122, 7-(difluoromethyl)-1-(4-fluoro-2-isopropylphenyl)-3-(2-methyl-6-oxo-1,6-dihydropyridin-3-yl)-2,3-dihydropyrido[2,3-d]pyrimidin-4(1H)-one] was run?
Its IC50 is ≤ 100 nM.

How did the IC50 turn out when `Cc1cc(C#N)ccc1N1CN(c2ccc(=O)[nH]c2C)C(=O)c2cc(OC(F)(F)F)ccc21` [Example 123, 3-methyl-4-(3-(2-methyl-6-oxo-1,6-dihydropyridin-3-yl)-4-oxo-6-(trifluoromethoxy)-3,4-dihydroquinazolin-1(2H)-yl)benzonitrile] was run?
Its IC50 is ≤ 100 nM.

Which IC50 does the source give for `Cc1cc(F)ccc1N1CN(c2ccc(=O)[nH]c2C)C(=O)c2cccc(Cl)c21` [Example 124, 8-chloro-1-(4-fluoro-2-methylphenyl)-3-(2-methyl-6-oxo-1,6-dihydropyridin-3-yl)-2,3-dihydroquinazolin-4(1H)-one] here?
Its IC50 is 794 to 7940 nM.

`Cc1cc(F)ccc1N1CN(c2ccc(=O)[nH]c2C)C(=O)c2cccc(C)c21` [Example 125, 1-(4-fluoro-2-methylphenyl)-8-methyl-3-(2-methyl-6-oxo-1,6-dihydropyridin-3-yl)-2,3-dihydroquinazolin-4(1H)-one] was tested. Which IC50 did it give?
The IC50 was 794 to 7940 nM.

How did the IC50 turn out when `COc1ccc(N2CN(c3ccc(=O)[nH]c3C)C(=O)c3cc(C(F)(F)F)ccc32)c(C)c1` [Example 126, 1-(4-methoxy-2-methylphenyl)-3-(2-methyl-6-oxo-1,6-dihydropyridin-3-yl)-6-(trifluoromethyl)-2,3-dihydroquinazolin-4(1H)-one] was run?
The IC50 was ≤ 100 nM.

With `Cc1cc(O)ccc1N1CN(c2ccc(=O)[nH]c2C)C(=O)c2cc(C(F)(F)F)ccc21` [Example 127, 1-(4-hydroxy-2-methylphenyl)-3-(2-methyl-6-oxo-1,6-dihydropyridin-3-yl)-6-(trifluoromethyl)-2,3-dihydroquinazolin-4(1H)-one] as the compound, how does the IC50 read?
The IC50 was 126 to 631 nM.

With `Cc1[nH]c(=O)ccc1N1CN(c2cccc(C#N)c2C)c2ccc(Cl)cc2C1=O` [Example 128, 3-(6-chloro-3-(2-methyl-6-oxo-1,6-dihydropyridin-3-yl)-4-oxo-3,4-dihydroquinazolin-1(2H)-yl)-2-methylbenzonitrile] as the compound, how does the IC50 read?
The IC50 was 126 to 631 nM.

Which IC50 does the source give for `Cc1cc(F)ccc1N1CN(c2ccc(=O)[nH]c2C)C(=O)c2cc(F)c(OC(F)(F)F)cc21` [Example 129, 6-fluoro-1-(4-fluoro-2-methylphenyl)-3-(2-methyl-6-oxo-1,6-dihydropyridin-3-yl)-7-(trifluoromethoxy)-2,3-dihydroquinazolin-4(1H)-one] here?
Its IC50 is ≤ 100 nM.

How did the IC50 turn out when `Cc1cc(F)ccc1N1CN(c2ccc(=O)[nH]c2C)C(=O)c2c(C(F)F)cccc21` [Example 130, 5-(difluoromethyl)-1-(4-fluoro-2-methylphenyl)-3-(2-methyl-6-oxo-1,6-dihydropyridin-3-yl)-2,3-dihydroquinazolin-4(1H)-one] was run?
The IC50 was 126 to 631 nM.

How did the IC50 turn out when `Cc1cc(F)ccc1N1CN(c2cc(F)c(=O)[nH]c2C)C(=O)c2cc(C(F)(F)F)ccc21` [Example 131, 3-(5-fluoro-2-methyl-6-oxo-1,6-dihydropyridin-3-yl)-1-(4-fluoro-2-methylphenyl)-6-(trifluoromethyl)-2,3-dihydroquinazolin-4(1H)-one] was run?
Its IC50 is ≤ 100 nM.

How did the IC50 turn out when `COc1cc(F)ccc1N1CN(c2ccc(=O)[nH]c2C)C(=O)c2cc(F)c(F)cc21` [Example 132, 6,7-difluoro-1-(4-fluoro-2-methoxyphenyl)-3-(2-methyl-6-oxo-1,6-dihydropyridin-3-yl)-2,3-dihydroquinazolin-4(1H)-one] was run?
Its IC50 is 126 to 631 nM.

Which IC50 does the source give for `Cc1ccc(N2CN(c3ccc(=O)[nH]c3C)C(=O)c3cc(Cl)ccc32)c(O)c1` [Example 133, 6-chloro-1-(2-hydroxy-4-methylphenyl)-3-(2-methyl-6-oxo-1,6-dihydropyridin-3-yl)-2,3-dihydroquinazolin-4(1H)-one] here?
The IC50 was 794 to 7940 nM.
